The record followed here is patent publication US8821754B2, “Additive for preserving the fluidity of fluids containing gas hydrates” (Akzo Nobel N.V., priority 2006, dated 2014).

Assay [1] in a line: multicell screening of anti-agglomerants (stirred cells cooled to 4° C., 100 bars). As to conditions: for Tests multicell screening, Fresh water 1.5% / Tests multicell screening, Seawater 1.5%: 1.5% anti-agglomerant; for Tests multicell screening, Fresh water 1.5% / Tests multicell screening, Seawater 1.0% / Tests multicell screening, Seawater 1.5% / Tests multicell screening, Fresh water 2.5%: 100 bars, 4° C., Sleipner condensate; for Tests multicell screening, Seawater 1.0%: 1.0% anti-agglomerant; for effect as anti-agglomerant for gas hydrates in the screening test, in words: multicell screening test of Example 1; for Tests multicell screening, Fresh water 2.5%: 2.5% anti-agglomerant. Also noted: key to Tests multicell screening, Seawater 1.0% / Tests multicell screening, Seawater 1.5% / Tests multicell screening, Fresh water 1.5% / Tests multicell screening, Fresh water 2.5%: 0: the compound does not work as an anti-agglomerant; 1: the compound initially works as an anti-agglomerant, but not throughout the whole test; 2: the compound works as an anti-agglomerant throughout the whole test. The text has this: (§1) The technique used for evaluating the anti-agglomerants is described in detail in “New Technique for Evaluating Antiagglomerate Gas-Hydrate Inhibitors in Oilfield Applications”, SPE 93075, 2005 SPE International Symposium on Oilfield Chemistry, Houston, Tex., Feb. 2-4.
(§2) The complete multicell system consists of a high-pressure vessel containing the multicell test unit, a cooling unit, a stirrer drive, a sensor interface unit, and a computer system. The high-pressure vessel is connected to two gas cylinders containing pressurized hydrocarbon gas (87.9% methane, 7.7% ethane, 3.1% propane, and 1.3% isobutane) and nitrogen. Thus, in an experimental run each test cell will be subjected to the same gas mixture, temperature, and pressure. Each cell has a magnetic bar stirrer and the rotation of the stirrer is monitored by the sensor and recorded. When gas hydrate crystals are formed in a cell, there will be a change in viscosity or flow behaviour and there will be a change in the lag of the stirrer bar. Each time the magnetic bar passes a certain point, an optical pulse is recorded. The lag is measured as the difference between the position of the lower drive magnets and the stirrer in the cell. When the viscosity gets too high, as is the case when larger aggregates of gas hydrates are formed, the magnetic stirrer will either stop completely, in which case the signal will be zero, or start “skipping”, which will create an unstable/random signal, and this will be shown in the recorded graph.
(§3) Each cell is also equipped with a temperature sensor.
The cells are loaded with 1 ml of water/inhibitor mixture and 2.5 ml of Sleipner condensate (=crude oil obtained from the Sleipner oilfield of Statoil). Nitrogen is first applied to expel most of the air, and then hydrocarbon gas is admitted until a constant pressure of 100 bars is reached.
During the whole test, the mixtures were continuously stirred at 120 rpm. The temperature was first lowered from about 20° C. to 4° C. in about 1.5 hours, then kept at 4° C. for about two hours, and finally reheated again to 20° C. in about 1.5 hours. When the stirrer works all the time, the compound is considered to work well as an anti-agglomerant, whereas if the stirrer bar stops, the compound is considered not to work as an anti-agglomerant during the prevailing conditions. The tests were performed both in seawater and in fresh water and at different concentrations of the anti-agglomerants.

Assay [2] can be described thus: multicell shut-in and restart test of anti-agglomerants. On the set-up: key: 0: The stirrer did not start at all until the temperature had been increased so much that the gas hydrate had melted; 1: The stirrer started but stopped again after a short period; 2: The stirrer started and kept on running continuously. Conditions: restart after at least twelve hours at 4° C.; for Tests multicell shut-in, Fresh water (70 bar) 2.5% / Tests multicell shut-in, Seawater (70 bar) 2.5%: 2.5% anti-agglomerant; for Tests multicell shut-in, Fresh water (70 bar) 2.0%: 2.0% anti-agglomerant.
Text: as §1, §2, §3
The cells are loaded in the same way as above, but hydrocarbon gas is admitted until the constant stated pressure is reached.
In this experiment the test cells were stirred at 120 rpm for one hour at 20° C. and the stated pressure. The stirring was then stopped and the autoclave cooled to 4° C. in about 1.5 hours. The cells were then kept at 4° C. for a minimum of twelve hours before the driving magnets were restarted at 120 rpm. They were then kept running for about two hours at 4° C. before the cells were reheated to 20° C. in about 1.5 hours.
This is marked as 0 in the tables. • The stirrer started but stopped again after a short period. This is marked as 1 in the tables. • The stirrer started and kept on running continuously. This is marked as 2 in the tables.

The mark [3] stands for this setting: seawater, 1.5% anti-agglomerant.

Marks after values point to notes of the source that are not given here.

Regarding “Monoamide between oleic acid and aminoethyl ethanolamine, amidated with acetic anhydride [Compound 8]”, in assay [1], the “Tests multicell screening, Fresh water 1.5%” value was 2; the “Tests multicell screening, Seawater 1.0%” value is 2; the “Tests multicell screening, Seawater 1.5%” value amounted to 2.

Take “Oleyl amine + 2EO [D, reference compound]”: the “Tests multicell screening, Seawater 1.0%” value in assay [1] turned out to be 0.

Turning to “(Coco alkyl)amine + 4 EO [reference compound]”, in assay [1], the “effect as anti-agglomerant for gas hydrates in the screening test, in words” value (“effect as anti-agglomerant” for short) is reported as “not effective”; the “Tests multicell screening, Seawater 1.0%” value stood at 0; the “Tests multicell screening, Seawater 1.5%” value stood at 0.

On to “Oleyl amine + 2EO + 2PO, quaternized with CH3Cl [reference compound]”, for which, in assay [1], the “Tests multicell screening, Fresh water 1.5%” value worked out at 0 and the “Tests multicell screening, Seawater 1.5%” value is given as 2.

Consider `CCCCCCCCN(CCCNC(C)=O)C(C)=O` [Compound 11, N-(n-octyl)-trimethylene diamine diamidated with acetic anhydride], for which the “Tests multicell screening, Seawater 1.5%” value in assay [1] was 2.

Take `CCCCCCCC/C=C\CCCCCCCCN(CCCNC(C)=O)C(C)=O` [Compound 10, N-oleyl-trimethylene diamine diamidated with acetic anhydride]: the “Tests multicell screening, Seawater 1.5%” value in assay [1] worked out at 2. The “Tests multicell shut-in, Fresh water (70 bar) 2.5%” value in assay [2] stood at 2. Also, in assay [2] (setting [3]), the “Tests multicell shut-in, Seawater (70 bar) 1.5%” value is on record as 0. Besides, the “Tests multicell shut-in, Seawater (70 bar) 2.5%” value in assay [2] (seawater) is 2.

For “N-(n-octyl)-trimethylene diamine + 3PO [Compound 4]”, in assay [1], the “Tests multicell screening, Seawater 1.5%” value turned out to be 2.

On to “(Coco alkyl)amine + 2EO + 2PO [Compound 3]”, for which, in assay [1], the “effect as anti-agglomerant” value was “works excellently as an anti-agglomerant”; the “Tests multicell screening, Seawater 1.0%” value stood at 2; the “Tests multicell screening, Seawater 1.5%” value stood at 2. Moreover, the “Tests multicell shut-in, Fresh water (70 bar) 2.0%” value in assay [2] is listed as 2. The “Tests multicell shut-in, Seawater (70 bar) 1.5%” value in assay [2] (setting [3]) is listed as 0. Further, the “Tests multicell shut-in, Seawater (70 bar) 2.5%” value in assay [2] (seawater) is 1.

On to “N,N-bis(3-aminopropyl)(tallow alkyl)amine, diamidated with acetic anhydride [Compound 9]”, for which, in assay [1], the “Tests multicell screening, Seawater 1.0%” value was determined as 0 and the “Tests multicell screening, Seawater 1.5%” value worked out at 2.

For the compound “N-(2-ethylhexyl)-trimethylene diamine + 3PO [Compound 15]”, the “Tests multicell shut-in, Fresh water (70 bar) 2.5%” value in assay [2] was found to be 1. Further, the “Tests multicell shut-in, Seawater (70 bar) 2.5%” value in assay [2] (seawater) was 2.

“N-(coco alkyl)-trimethylene diamine diamidated with acetic anhydride [Compound 12]”: the “Tests multicell screening, Seawater 1.5%” value in assay [1] is 2.

Consider “(Coco alkyl)amine + 2EO [B, reference compound]”, for which, in assay [1], the “effect as anti-agglomerant” value was “not effective”; the “Tests multicell screening, Seawater 1.0%” value is recorded as 0; the “Tests multicell screening, Seawater 1.5%” value came out at 0.

For “N-(tallow alkyl)-N-methyl aminopropylamine monoamidated with acetic anhydride [Compound 13]”, in assay [1], the “Tests multicell screening, Seawater 1.5%” value amounted to 2.

Turning to `CCCCC(CC)CN(CCCNC(C)=O)C(C)=O` (centres unmarked) [Compound 14, N-(2-ethylhexyl)-trimethylene diamine, diamidated with acetic anhydride], in assay [2], the “Tests multicell shut-in, Fresh water (70 bar) 2.5%” value is on record as 2. Besides, in assay [2] (setting [3]), the “Tests multicell shut-in, Seawater (70 bar) 1.5%” value was 0. Further, the “Tests multicell shut-in, Seawater (70 bar) 2.5%” value in assay [2] (seawater) stood at 0.

Regarding “Oleyl amine + 2EO, diester with acetic acid [Compound 5]”, in assay [1], the “Tests multicell screening, Fresh water 1.5%” value is listed as 0; the “Tests multicell screening, Fresh water 2.5%” value worked out at 0; the “Tests multicell screening, Seawater 1.0%” value is reported as 0; the “Tests multicell screening, Seawater 1.5%” value is 2.

As for Erucyl amine + 2EO + 2PO [Compound 2], in assay [1], the “Tests multicell screening, Fresh water 1.5%” value is 2 and the “Tests multicell screening, Seawater 1.5%” value came to 2.

In the case of “N-oleyl-trimethylene diamine + 3EO, triesterified with acetic anhydride [Compound 6]”, in assay [1], the “Tests multicell screening, Fresh water 2.5%” value was found to be 2 and the “Tests multicell screening, Seawater 1.5%” value is 2. For the same compound, the “Tests multicell shut-in, Fresh water (70 bar) 2.5%” value in assay [2] worked out at 2. The “Tests multicell shut-in, Seawater (70 bar) 1.5%” value in assay [2] (setting [3]) is recorded as 0. Besides, the “Tests multicell shut-in, Seawater (70 bar) 2.5%” value in assay [2] (seawater) turned out to be 1.

As to Oleyl amine + 2EO + 2PO [Compound 1], in assay [1], the “Tests multicell screening, Seawater 1.5%” value is on record as 2. Further, in assay [2], the “Tests multicell shut-in, Fresh water (70 bar) 2.0%” value was 1 and the “Tests multicell shut-in, Fresh water (70 bar) 2.5%” value was 1. For the same compound, the “Tests multicell shut-in, Seawater (70 bar) 2.5%” value in assay [2] (seawater) is on record as 1. Further, in assay [2] (seawater, 100 bar, 1.5% anti-agglomerant), the “Tests multicell shut-in, Seawater 1.5%, measured at 100 bar” value is on record as 2**.

As for “Monoamide between oleic acid and aminoethyl ethanolamine + 1EO, diesterified with acetic anhydride [Compound 7]”, the “Tests multicell screening, Seawater 1.0%” value in assay [1] came out at 2.
